From patent US11247990B1, “Bicyclic fused pyridine compounds as inhibitors of TAM kinases” (ARRAY BIOPHARMA INC., priority 2017, dated 2022)

Target: His-tagged recombinant human MER cytoplasmic domain (Homo sapiens (Human), UniProt Q12866)
Assay: MER Enzyme Assay (LanthaScreen Eu Kinase Binding, TR-FRET)
Details: averaged IC50
Experimental: (§1) Compounds of Formula I were screened for their ability to inhibit MER kinase using Invitrogen's LanthaScreen™ Eu Kinase Binding technology. […] After a 60-minute incubation at 22° C., the reaction was measured using a PerkinElmer EnVision multimode plate reader via TR-FRET dual wavelength detection, and the percent of control (POC) was calculated using a ratiometric emission factor. […] The POC values are fit to a 4 parameter logistic curve and the IC50 value is point where the curve crosses 50 POC.

His-tagged recombinant human MER cytoplasmic domain, sequence (Q12866 527-999): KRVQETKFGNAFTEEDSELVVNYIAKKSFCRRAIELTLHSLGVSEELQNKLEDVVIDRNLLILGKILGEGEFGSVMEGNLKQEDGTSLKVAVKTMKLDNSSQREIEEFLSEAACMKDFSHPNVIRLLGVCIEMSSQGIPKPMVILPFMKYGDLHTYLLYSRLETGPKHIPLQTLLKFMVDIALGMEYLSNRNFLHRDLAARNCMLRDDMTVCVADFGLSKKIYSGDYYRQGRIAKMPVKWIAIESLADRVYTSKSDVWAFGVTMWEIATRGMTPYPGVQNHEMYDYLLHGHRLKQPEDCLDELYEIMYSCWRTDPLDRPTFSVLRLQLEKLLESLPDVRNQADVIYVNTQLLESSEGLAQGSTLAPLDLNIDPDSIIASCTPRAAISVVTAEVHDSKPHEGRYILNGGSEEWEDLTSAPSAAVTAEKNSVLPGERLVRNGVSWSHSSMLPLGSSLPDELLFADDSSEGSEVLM

Structure (SMILES) | IC50 [nM]
CNc1cc2c(cn1)c(-c1cnn(C)c1)nn2[C@H]1CC[C@@H](Oc2ccc(=O)[nH]c2)CC1 [Example 25, 5-(((1s,4s)-4-(3-(1-methyl-1H-pyrazol-4-yl)-6-(methylamino)-1H-pyrazolo[4,3-c]pyridin-1-yl)cyclohexyl)oxy)pyridin-2(1H)-one] | < 10
CCNc1cc2c(cn1)c(-c1ccc(CN3CCN(CCOC)CC3)cc1)nn2[C@H]1CC[C@@H](Oc2ccc(=O)n(C)n2)CC1 [Example 82, 6-(((1s,4s)-4-(6-(ethylamino)-3-(4-((4-(2-methoxyethyl)piperazin-1-yl)methyl)phenyl)-1H-pyrazolo[4,3-c]pyridin-1-yl)cyclohexyl)oxy)-2-methylpyridazin-3(2H)-one] | < 10
CCNc1cc2c(cn1)c(-c1ccc(CN3CC(C)(O)C3)cc1)nn2[C@H]1CC[C@@H](Oc2ccc(=O)n(C)n2)CC1 [Example 90, 6-(((1s,4s)-4-(6-(ethylamino)-3-(4-((3-hydroxy-3-methylazetidin-1-yl)methyl)phenyl)-1H-pyrazolo[4,3-c]pyridin-1-yl)cyclohexyl)oxy)-2-methylpyridazin-3(2H)-one] | < 10
CNc1cc2c(cn1)c(-c1cnn(C)c1)nn2[C@H]1CC[C@@H](Oc2cccc(=O)n2C)CC1 [Example 110, 1-methyl-6-(((1s,4s)-4-(3-(1-methyl-1H-pyrazol-4-yl)-6-(methylamino)-1H-pyrazolo[4,3-c]pyridin-1-yl)cyclohexyl)oxy)pyridin-2(1H)-one] | < 10
CCNc1cc2c(cn1)c(C1CCCOC1)nn2[C@H]1CC[C@@H](Oc2nccc(C(F)(F)F)c2F)CC1 (stereo partly drawn) [Example 318, N-ethyl-1-((1s,4s)-4-((3-fluoro-4-(trifluoromethyl)pyridin-2-yl)oxy)cyclohexyl)-3-(tetrahydro-2H-pyran-3-yl)-1H-pyrazolo[4,3-c]pyridin-6-amine] | < 10
CCNc1cc2c(cn1)c(-c1cnn(C(C)(C)C#N)c1)nn2[C@H]1CC[C@@H](Oc2ccccc2F)CC1 [Example 400, 2-(4-(6-(ethylamino)-1-((1s,4s)-4-(2-fluorophenoxy)cyclohexyl)-1H-pyrazolo[4,3-c]pyridin-3-yl)-1H-pyrazol-1-yl)-2-methylpropanenitrile] | < 10
CNc1cc2c(cn1)c(-c1cnn(C)c1)nn2[C@H]1CC[C@@H](Oc2nccc(C(F)(F)F)n2)CC1 [Example 153, N-methyl-3-(1-methyl-1H-pyrazol-4-yl)-1-((1s,4s)-4-((4-(trifluoromethyl)pyrimidin-2-yl)oxy)cyclohexyl)-1H-pyrazolo[4,3-c]pyridin-6-amine] | < 10
CNc1cc2c(cn1)c(-c1cnn(C)c1)nn2[C@H]1CC[C@@H](Oc2cccc(C)c2)CC1 [Example 366, N-methyl-3-(1-methyl-1H-pyrazol-4-yl)-1-((1s,4s)-4-(m-tolyloxy)cyclohexyl)-1H-pyrazolo[4,3-c]pyridin-6-amine] | < 10
CCNc1cc2c(cn1)c(-c1cnn(C(CO)CO)c1)nn2[C@H]1CC[C@@H](Oc2cccc(F)c2)CC1 [Example 412, 2-(4-(6-(ethylamino)-1-((1s,4s)-4-(3-fluorophenoxy)cyclohexyl)-1H-pyrazolo[4,3-c]pyridin-3-yl)-1H-pyrazol-1-yl)propane-1,3-diol] | < 10

Other lines, results leading:

IC50 [nM] | Structure (SMILES)
< 10 | CCNc1cc2c(cn1)c(-c1cnn(C)c1)nn2[C@H]1CC[C@@H](Oc2cc(C#N)ccn2)CC1 [Example 200, 2-(((1s,4s)-4-(6-(ethylamino)-3-(1-methyl-1H-pyrazol-4-yl)-1H-pyrazolo[4,3-c]pyridin-1-yl)cyclohexyl)oxy)isonicotinonitrile]
< 10 | CCNc1cc2c(cn1)c(-c1cnn(C)c1)nn2[C@H]1CC[C@@H](Oc2cccnc2C(C)C)CC1 [Example 192, N-ethyl-1-((1s,4s)-4-((2-isopropylpyridin-3-yl)oxy)cyclohexyl)-3-(1-methyl-1H-pyrazol-4-yl)-1H-pyrazolo[4,3-c]pyridin-6-amine]
< 10 | CCNc1cc2c(cn1)c(-c1cnn(C(CO)CO)c1)nn2[C@H]1CC[C@@H](Oc2ccc(F)c(F)c2)CC1 [Example 418, 2-(4-(1-((1s,4s)-4-(3,4-difluorophenoxy)cyclohexyl)-6-(ethylamino)-1H-pyrazolo[4,3-c]pyridin-3-yl)-1H-pyrazol-1-yl)propane-1,3-diol]
< 10 | CCNc1cc2c(cn1)c(-c1cnc(OC)nc1)nn2[C@H]1CC[C@@H](Oc2nccc(C(F)(F)F)c2F)CC1 [Example 269, N-ethyl-1-((1s,4s)-4-((3-fluoro-4-(trifluoromethyl)pyridin-2-yl)oxy)cyclohexyl)-3-(2-methoxypyrimidin-5-yl)-1H-pyrazolo[4,3-c]pyridin-6-amine]
< 10 | CCNc1cc2c(cn1)c(-c1cnn(C)c1)nn2[C@H]1CC[C@@H](Oc2cccnc2C)CC1 [Example 185, N-ethyl-3-(1-methyl-1H-pyrazol-4-yl)-1-((1s,4s)-4-((2-methylpyridin-3-yl)oxy)cyclohexyl)-1H-pyrazolo[4,3-c]pyridin-6-amine]
< 10 | CCNc1cc2c(cn1)c(-c1cnn(C[C@H](O)C(C)(C)O)c1)nn2[C@H]1CC[C@@H](Oc2cccc(Cl)c2)CC1 [Example 441, (S)-1-(4-(1-((1s,4R)-4-(3-chlorophenoxy)cyclohexyl)-6-(ethylainino)-1H-pyrazolo[4,3-c]pyridin-3-yl)-1H-pyrazol-1-yl)-3-methylbutane-2,3-diol]
< 10 | CCNc1cc2c(cn1)c(-c1cnn(C3CS(=O)(=O)C3)c1)nn2[C@H]1CC[C@@H](Oc2ccccc2F)CC1 [Example 426, 3-(4-(6-(ethylamino)-1-((1s,4s)-4-(2-fluorophenoxy)cyclohexyl)-1H-pyrazolo[4,3-c]pyridin-3-yl)-1H-pyrazol-1-yl)thietane 1,1-dioxide]

Target: GST-tagged recombinant human TYRO3 kinase domain (Homo sapiens (Human), UniProt Q06418)
Assay: TYRO3 Enzyme Assay (LanthaScreen Eu Kinase Binding, TR-FRET)
Details: averaged IC50
Experimental: as §1, with “TYRO3” for “MER”, “(POC)” for “(POC) was”, “were” for “are”

GST-tagged recombinant human TYRO3 kinase domain, sequence (Q06418 518-790): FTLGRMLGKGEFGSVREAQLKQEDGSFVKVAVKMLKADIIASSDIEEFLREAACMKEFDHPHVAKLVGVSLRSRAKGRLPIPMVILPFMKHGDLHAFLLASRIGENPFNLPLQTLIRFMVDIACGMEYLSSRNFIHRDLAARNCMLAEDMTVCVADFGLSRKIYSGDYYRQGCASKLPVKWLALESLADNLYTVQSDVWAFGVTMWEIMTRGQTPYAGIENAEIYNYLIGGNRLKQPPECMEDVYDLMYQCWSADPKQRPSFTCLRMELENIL

Structure (SMILES) | IC50 [nM]
CNc1cc2c(cn1)c(-c1cnn(C)c1)nn2[C@H]1CC[C@@H](Oc2ccc(C#N)cn2)CC1 [Example 127, 6-(((1s,4s)-4-(3-(1-methyl-1H-pyrazol-4-yl)-6-(methylamino)-1H-pyrazolo[4,3-c]pyridin-1-yl)cyclohexyl)oxy)nicotinonitrile] | 1000 to 10000
CNc1cc2c(cn1)c(-c1cnn(C)c1)nn2[C@H]1CC[C@@H](Oc2ccc(=O)n(CCN(C)C)n2)CC1 [Example 18, 2-(2-(dimethylamino)ethyl)-6-(((1s,4s)-4-(3-(1-methyl-1H-pyrazol-4-yl)-6-(methylamino)-1H-pyrazolo[4,3-c]pyridin-1-yl)cyclohexyl)oxy)pyridazin-3(2H)-one] | 1000 to 10000

Next, values leading:

IC50 [nM] | Structure (SMILES)
1000 to 10000 | CCn1nc(O[C@H]2CC[C@@H](n3nc(-c4cnn(C)c4)c4cnc(NC)cc43)CC2)ccc1=O [Example 14, 2-ethyl-6-(((1s,4s)-4-(3-(1-methyl-1H-pyrazol-4-yl)-6-(methylamino)-1H-pyrazolo[4,3-c]pyridin-1-yl)cyclohexyl)oxy)pyridazin-3(2H)-one]
< 10 | CCCNc1cc2c(cn1)c(-c1cnn(C)c1)nn2[C@H]1CC[C@@H](Oc2ccccc2F)CC1 [Example 405, 1-((1s,4s)-4-(2-fluorophenoxy)cyclohexyl)-3-(1-methyl-1H-pyrazol-4-yl)-N-propyl-1H-pyrazolo[4,3-c]pyridin-6-amine]
1000 to 10000 | CCNc1cc2c(cn1)c(C1CCCCC1)nn2[C@H]1CC[C@@H](Oc2nccc(C(F)(F)F)c2F)CC1 [Example 322, 3-cyclohexyl-N-ethyl-1-((1s,4s)-4-((3-fluoro-4-(trifluoromethyl)pyridin-2-yl)oxy)cyclohexyl)-1H-pyrazolo[4,3-c]pyridin-6-amine]
